Experimental data from patent publication US20120121691A1, “Method for Increasing the Production of a Specific ACYL-Chain Dihydroceramide(s) for Improving the Effectiveness of Cancer Treatments” (priority 2010, published 2012).
Where two headings read alike, the source gives them in different places.

What was measured:
CCRF-CEM = system: CCRF-CEM
Description: Statistical analyses. Descriptive statistics and significance testing were performed using Microsoft Excel. The Excel function “t.test” was used for Student's T-testing (two-tailed, type-2). Propagated standard deviations were calculated using standard methods. Correlation analyses were performed using Sigmaplot 11 software. […]
Due to the confounding effect of in vitro fatty acid conversion, correlation analyses were used to identify significant relationships between absolute levels of specific sphingolipids and cytotoxicity. […]

COG-LL-332 = type: cell-based, human
Description: (§1) Statistical analyses. […] Propagated standard deviations were calculated using standard methods. Correlation analyses were performed using Sigmaplot 11 software.

COG-LL-317 = type: cell-based, human
Description: as §1

MOLT-4 = type: cell-based, human
Description: as §1

## CCCCCCCCCCCCCCC[C@@H](O)[C@@H](N)COP(=O)(O)O [Sphingaine-1-P]
CCRF-CEM
  Pearson Coef. (r), sphingolipid level vs cytotoxicity: 0.44
  Spearman Coef. (ρ), sphingolipid level vs cytotoxicity: 0.38

## CCCCCCCCC=CCCCCCCCCCCCC(=O)NC(CO)C(O)C=CCCCCCCCCCCCCC (stereo not shown) [C22:1-Cer]
CCRF-CEM
  Pearson Coef. (r), sphingolipid level vs cytotoxicity: −0.23
  Spearman Coef. (ρ), sphingolipid level vs cytotoxicity: −0.24
COG-LL-332
  Pearson Coefficient (r), sphingolipid level vs cytotoxicity: −0.14
  Spearman Coefficient (ρ), sphingolipid level vs cytotoxicity: −0.26
COG-LL-317
  Pearson Coef. (r), sphingolipid level vs cytotoxicity: −0.28
  Spearman Coef. (ρ), sphingolipid level vs cytotoxicity: −0.60
MOLT-4
  Pearson Coef. (r), sphingolipid level vs cytotoxicity: −0.32
  Spearman Coef. (ρ), sphingolipid level vs cytotoxicity: −0.48

## CCCCCCCCCCCCCCCCCCCCCCCC(=O)N[C@@H](CO)[C@H](O)CCCCCCCCCCCCCCC [C24:0-DHCer]
CCRF-CEM
  Pearson Coef. (r), sphingolipid level vs cytotoxicity: 0.58
  Spearman Coef. (ρ), sphingolipid level vs cytotoxicity: 0.84
COG-LL-332
  Pearson Coefficient (r), sphingolipid level vs cytotoxicity: 0.74
  Spearman Coefficient (ρ), sphingolipid level vs cytotoxicity: 0.83
COG-LL-317
  Pearson Coef. (r), sphingolipid level vs cytotoxicity: 0.89
  Spearman Coef. (ρ), sphingolipid level vs cytotoxicity: 0.91
MOLT-4
  Pearson Coef. (r), sphingolipid level vs cytotoxicity: 0.79
  Spearman Coef. (ρ), sphingolipid level vs cytotoxicity: 0.88

## CCCCCCCCCCCCCCCC(=O)N[C@@H](CO)[C@H](O)CCCCCCCCCCCCCCC [C16:0-DHCer]
CCRF-CEM
  Pearson Coef. (r), sphingolipid level vs cytotoxicity: 0.26
  Spearman Coef. (ρ), sphingolipid level vs cytotoxicity: 0.37
COG-LL-332
  Pearson Coefficient (r), sphingolipid level vs cytotoxicity: 0.45
  Spearman Coefficient (ρ), sphingolipid level vs cytotoxicity: 0.62
COG-LL-317
  Pearson Coef. (r), sphingolipid level vs cytotoxicity: 0.03
  Spearman Coef. (ρ), sphingolipid level vs cytotoxicity: 0
MOLT-4
  Pearson Coef. (r), sphingolipid level vs cytotoxicity: 0.26
  Spearman Coef. (ρ), sphingolipid level vs cytotoxicity: 0.57

## CCCCCCCCCCCCCC=CC(O)C(CO)NC(=O)CCCCCCCCCCCCCCCCCCC (stereo not shown) [C20:0-Cer]
CCRF-CEM
  Pearson Coef. (r), sphingolipid level vs cytotoxicity: 0.01
  Spearman Coef. (ρ), sphingolipid level vs cytotoxicity: 0.07
COG-LL-332
  Pearson Coefficient (r), sphingolipid level vs cytotoxicity: −0.79
  Spearman Coefficient (ρ), sphingolipid level vs cytotoxicity: −0.91
COG-LL-317
  Pearson Coef. (r), sphingolipid level vs cytotoxicity: −0.63
  Spearman Coef. (ρ), sphingolipid level vs cytotoxicity: −0.81
MOLT-4
  Pearson Coef. (r), sphingolipid level vs cytotoxicity: −0.46
  Spearman Coef. (ρ), sphingolipid level vs cytotoxicity: −0.52

## CCCCCCCCCCCCCC=CC(O)C(CO)NC(=O)CCCCCCCCCCCCCCCCCCCCC (stereo not shown) [C22:0-Cer]
CCRF-CEM
  Pearson Coef. (r), sphingolipid level vs cytotoxicity: 0.42
  Spearman Coef. (ρ), sphingolipid level vs cytotoxicity: 0.48
COG-LL-332
  Pearson Coefficient (r), sphingolipid level vs cytotoxicity: 0.45
  Spearman Coefficient (ρ), sphingolipid level vs cytotoxicity: 0
COG-LL-317
  Pearson Coef. (r), sphingolipid level vs cytotoxicity: 0.59
  Spearman Coef. (ρ), sphingolipid level vs cytotoxicity: 0.33
MOLT-4
  Pearson Coef. (r), sphingolipid level vs cytotoxicity: 0.46
  Spearman Coef. (ρ), sphingolipid level vs cytotoxicity: 0.31

## CCCCCCCCC=CCCCCCCCC(=O)NC(CO)C(O)C=CCCCCCCCCCCCCC (stereo not shown) [C18:1-Cer]
CCRF-CEM
  Pearson Coef. (r), sphingolipid level vs cytotoxicity: 0.11
  Spearman Coef. (ρ), sphingolipid level vs cytotoxicity: 0.10
COG-LL-332
  Pearson Coefficient (r), sphingolipid level vs cytotoxicity: −0.45
  Spearman Coefficient (ρ), sphingolipid level vs cytotoxicity: −0.30
COG-LL-317
  Pearson Coef. (r), sphingolipid level vs cytotoxicity: −0.50
  Spearman Coef. (ρ), sphingolipid level vs cytotoxicity: −0.59
MOLT-4
  Pearson Coef. (r), sphingolipid level vs cytotoxicity: −0.52
  Spearman Coef. (ρ), sphingolipid level vs cytotoxicity: −0.59

## CCCCCCCC/C=C\CCCCCCCCCCCCCC(=O)N[C@@H](CO)[C@H](O)CCCCCCCCCCCCCCC [C24:1-DHCer]
CCRF-CEM
  Pearson Coef. (r), sphingolipid level vs cytotoxicity: −0.17
  Spearman Coef. (ρ), sphingolipid level vs cytotoxicity: −0.07
COG-LL-332
  Pearson Coefficient (r), sphingolipid level vs cytotoxicity: 0.14
  Spearman Coefficient (ρ), sphingolipid level vs cytotoxicity: 0.45
COG-LL-317
  Pearson Coef. (r), sphingolipid level vs cytotoxicity: −0.29
  Spearman Coef. (ρ), sphingolipid level vs cytotoxicity: −0.21
MOLT-4
  Pearson Coef. (r), sphingolipid level vs cytotoxicity: −0.04
  Spearman Coef. (ρ), sphingolipid level vs cytotoxicity: 0.12

## CCCCCCCCCCCCCCCCCCCC(=O)N[C@@H](CO)[C@H](O)CCCCCCCCCCCCCCC [C20:0-DHCer]
CCRF-CEM
  Pearson Coef. (r), sphingolipid level vs cytotoxicity: 0.20
  Spearman Coef. (ρ), sphingolipid level vs cytotoxicity: 0.32
COG-LL-332
  Pearson Coefficient (r), sphingolipid level vs cytotoxicity: −0.09
  Spearman Coefficient (ρ), sphingolipid level vs cytotoxicity: 0
COG-LL-317
  Pearson Coef. (r), sphingolipid level vs cytotoxicity: −0.04
  Spearman Coef. (ρ), sphingolipid level vs cytotoxicity: 0.14
MOLT-4
  Pearson Coef. (r), sphingolipid level vs cytotoxicity: 0.12
  Spearman Coef. (ρ), sphingolipid level vs cytotoxicity: 0.14

## CCCCCCCCCCCCCC=CC(O)C(CO)NC(=O)CCCCCCCCCCCCCCCCCCCCCCC (stereo not shown) [C24:0-Cer]
CCRF-CEM
  Pearson Coef. (r), sphingolipid level vs cytotoxicity: 0.40
  Spearman Coef. (ρ), sphingolipid level vs cytotoxicity: 0.41
COG-LL-332
  Pearson Coefficient (r), sphingolipid level vs cytotoxicity: 0.39
  Spearman Coefficient (ρ), sphingolipid level vs cytotoxicity: 0.38
COG-LL-317
  Pearson Coef. (r), sphingolipid level vs cytotoxicity: 0.48
  Spearman Coef. (ρ), sphingolipid level vs cytotoxicity: 0.25
MOLT-4
  Pearson Coef. (r), sphingolipid level vs cytotoxicity: 0.33
  Spearman Coef. (ρ), sphingolipid level vs cytotoxicity: 0

## CCCCCCCCCCCCCCCCCCCCCC(=O)N[C@@H](CO)[C@H](O)CCCCCCCCCCCCCCC [C22:0-DHCer]
CCRF-CEM
  Pearson Coef. (r), sphingolipid level vs cytotoxicity: 0.67
  Spearman Coef. (ρ), sphingolipid level vs cytotoxicity: 0.75
COG-LL-332
  Pearson Coefficient (r), sphingolipid level vs cytotoxicity: 0.73
  Spearman Coefficient (ρ), sphingolipid level vs cytotoxicity: 0.81
COG-LL-317
  Pearson Coef. (r), sphingolipid level vs cytotoxicity: 0.86
  Spearman Coef. (ρ), sphingolipid level vs cytotoxicity: 0.79
MOLT-4
  Pearson Coef. (r), sphingolipid level vs cytotoxicity: 0.79
  Spearman Coef. (ρ), sphingolipid level vs cytotoxicity: 0.91

## CCCCCCCCCCCCCCCCCC(=O)N[C@@H](CO)[C@H](O)CCCCCCCCCCCCCCC [C18:0-DHCer]
CCRF-CEM
  Pearson Coef. (r), sphingolipid level vs cytotoxicity: 0.22
  Spearman Coef. (ρ), sphingolipid level vs cytotoxicity: 0.15
COG-LL-332
  Pearson Coefficient (r), sphingolipid level vs cytotoxicity: −0.16
  Spearman Coefficient (ρ), sphingolipid level vs cytotoxicity: −0.16
COG-LL-317
  Pearson Coef. (r), sphingolipid level vs cytotoxicity: −0.22
  Spearman Coef. (ρ), sphingolipid level vs cytotoxicity: −0.38
MOLT-4
  Pearson Coef. (r), sphingolipid level vs cytotoxicity: 0.12
  Spearman Coef. (ρ), sphingolipid level vs cytotoxicity: 0.14

## CCCCCCCCC=CCCCCCCCCCCCC(=O)NC(CO)C(O)CCCCCCCCCCCCCCC (stereo not shown) [C22:1-DHCer]
CCRF-CEM
  Pearson Coef. (r), sphingolipid level vs cytotoxicity: −0.13
  Spearman Coef. (ρ), sphingolipid level vs cytotoxicity: 0.22
COG-LL-332
  Pearson Coefficient (r), sphingolipid level vs cytotoxicity: 0.07
  Spearman Coefficient (ρ), sphingolipid level vs cytotoxicity: 0.62
COG-LL-317
  Pearson Coef. (r), sphingolipid level vs cytotoxicity: −0.28
  Spearman Coef. (ρ), sphingolipid level vs cytotoxicity: −0.26
MOLT-4
  Pearson Coef. (r), sphingolipid level vs cytotoxicity: −2.5 × 10^−3
  Spearman Coef. (ρ), sphingolipid level vs cytotoxicity: 0.24

## CCCCCCCCCCCCCCC[C@@H](O)[C@H](CO)NC(=O)CCCCCCCCCCCCC [C14:0-DHCer]
CCRF-CEM
  Pearson Coef. (r), sphingolipid level vs cytotoxicity: 0.12
  Spearman Coef. (ρ), sphingolipid level vs cytotoxicity: 0.20
COG-LL-332
  Pearson Coefficient (r), sphingolipid level vs cytotoxicity: 0.06
  Spearman Coefficient (ρ), sphingolipid level vs cytotoxicity: 0.18
COG-LL-317
  Pearson Coef. (r), sphingolipid level vs cytotoxicity: 0.16
  Spearman Coef. (ρ), sphingolipid level vs cytotoxicity: 0.10
MOLT-4
  Pearson Coef. (r), sphingolipid level vs cytotoxicity: 0.13
  Spearman Coef. (ρ), sphingolipid level vs cytotoxicity: 0.35

## CCCCCCCCCCCCC/C=C/[C@@H](O)[C@@H](N)COP(=O)(O)O [Sphingosine-1-P]
CCRF-CEM; CCRF-CEM
  Pearson Coef. (r), sphingolipid level vs cytotoxicity: −0.07
  Spearman Coef. (ρ), sphingolipid level vs cytotoxicity: 0.27

## CCCCCCCCCCCCCC=CC(O)C(CO)NC(=O)CCCCCCCCCCCCCCCCC (stereo not shown) [C18:0-Cer]
CCRF-CEM
  Pearson Coef. (r), sphingolipid level vs cytotoxicity: 0.14
  Spearman Coef. (ρ), sphingolipid level vs cytotoxicity: 0.07
COG-LL-332
  Pearson Coefficient (r), sphingolipid level vs cytotoxicity: −0.54
  Spearman Coefficient (ρ), sphingolipid level vs cytotoxicity: −0.38
COG-LL-317
  Pearson Coef. (r), sphingolipid level vs cytotoxicity: −0.45
  Spearman Coef. (ρ), sphingolipid level vs cytotoxicity: −0.60
MOLT-4
  Pearson Coef. (r), sphingolipid level vs cytotoxicity: −0.33
  Spearman Coef. (ρ), sphingolipid level vs cytotoxicity: −0.45

## CCCCCCCCCCCCC/C=C/[C@@H](O)[C@@H](N)CO [Sphingosine]
CCRF-CEM
  Pearson Coef. (r), sphingolipid level vs cytotoxicity: 0.02
  Spearman Coef. (ρ), sphingolipid level vs cytotoxicity: −0.19

## CCCCCCCCCCCCC/C=C/[C@@H](O)[C@H](CO)NC(=O)CCCCCCCCCCCCC [C14:0-Cer]
CCRF-CEM
  Pearson Coef. (r), sphingolipid level vs cytotoxicity: 0.03
  Spearman Coef. (ρ), sphingolipid level vs cytotoxicity: 0.01
COG-LL-332
  Pearson Coefficient (r), sphingolipid level vs cytotoxicity: −0.32
  Spearman Coefficient (ρ), sphingolipid level vs cytotoxicity: −0.28
COG-LL-317
  Pearson Coef. (r), sphingolipid level vs cytotoxicity: −0.54
  Spearman Coef. (ρ), sphingolipid level vs cytotoxicity: −0.43
MOLT-4
  Pearson Coef. (r), sphingolipid level vs cytotoxicity: −0.53
  Spearman Coef. (ρ), sphingolipid level vs cytotoxicity: −0.48

## CCCCCCCC/C=C\CCCCCCCCCCCCCC(=O)N[C@@H](CO)[C@H](O)/C=C/CCCCCCCCCCCCC [C24:1-Cer]
CCRF-CEM
  Pearson Coef. (r), sphingolipid level vs cytotoxicity: −0.27
  Spearman Coef. (ρ), sphingolipid level vs cytotoxicity: −0.32
COG-LL-332
  Pearson Coefficient (r), sphingolipid level vs cytotoxicity: −0.07
  Spearman Coefficient (ρ), sphingolipid level vs cytotoxicity: 0.05
COG-LL-317
  Pearson Coef. (r), sphingolipid level vs cytotoxicity: −0.42
  Spearman Coef. (ρ), sphingolipid level vs cytotoxicity: −0.74
MOLT-4
  Pearson Coef. (r), sphingolipid level vs cytotoxicity: −0.43
  Spearman Coef. (ρ), sphingolipid level vs cytotoxicity: −0.55

## CCCCCCCCCCCCCC=CC(O)C(CO)NC(=O)CCCCCCCCCCCCCCC (stereo not shown) [C16:0-Cer]
CCRF-CEM
  Pearson Coef. (r), sphingolipid level vs cytotoxicity: 0.25
  Spearman Coef. (ρ), sphingolipid level vs cytotoxicity: 0.03
COG-LL-332
  Pearson Coefficient (r), sphingolipid level vs cytotoxicity: −0.09
  Spearman Coefficient (ρ), sphingolipid level vs cytotoxicity: −0.05
COG-LL-317
  Pearson Coef. (r), sphingolipid level vs cytotoxicity: −0.48
  Spearman Coef. (ρ), sphingolipid level vs cytotoxicity: −0.50
MOLT-4
  Pearson Coef. (r), sphingolipid level vs cytotoxicity: −0.62
  Spearman Coef. (ρ), sphingolipid level vs cytotoxicity: −0.76
